Assay results published in patent US20260132141A1, “PROTEIN PHOSPHATASE 2A ACTIVATORS” (University of Florida Research Foundation, Incorporated, priority 2022, published 2026).

How the values were obtained:
[1] = biological target: PP2ACα (Homo sapiens, UniProt P67775); assay: surface plasmon resonance (SPR) binding to catalytic subunit PP2ACα; conditions: no KD could be calculated
Text: FIGS. 12A-12E depict surface plasmon resonance (SPR) analysis of the binding of PPA24, PPA27, and NSC49L to catalytic subunit, PP2ACα. FIG. 12A depicts surface plasmon resonance (SPR) studies of PPA24 binding to PP2ACα. FIG. 12B depicts surface plasmon resonance (SPR) studies of PPA27 binding to PP2ACα. FIG. 12C depicts the dissociation constant (KD) of PPA24 binding to PP2ACα. FIG. 12D depicts the dissociation constant (KD) of PPA27 binding to PP2ACα. FIG. 12E depicts surface plasmon resonance (SPR) studies of 100 μM of NSC49L binding to PP2ACα.
Thus, the binding affinity can be in the order of PPA24>PPA27>NSC49L>iHAP1.

[2] = test system: normal keratinocyte (HaCaT) cells; assay: cell viability screen in noncancerous HaCaT cells; format: cell-based
Text: FIGS. 14A-14C depict cell viability screen of PPA24, PPA27, iHAP1, and NSC49L in normal keratinocyte (HaCaT) (FIG. 14A) and epithelial (FHC) (FIG. 14B) cells, where the compounds were able to showcase selectivity to cancerous cells vs. noncancerous cells. FIG. 14C depicts IC50 concentrations of the compounds in the cells. Analyses were done using GraphPad Prism 7.0 Software.
The compounds PPA24, PPA27, iHAP1, and NSC49L were screened in noncancerous cell lines to observe the selectivity these compounds have towards cancerous cells by assessing the differences in IC50 concentrations.

PP2ACα, sequence (P67775 whole entry): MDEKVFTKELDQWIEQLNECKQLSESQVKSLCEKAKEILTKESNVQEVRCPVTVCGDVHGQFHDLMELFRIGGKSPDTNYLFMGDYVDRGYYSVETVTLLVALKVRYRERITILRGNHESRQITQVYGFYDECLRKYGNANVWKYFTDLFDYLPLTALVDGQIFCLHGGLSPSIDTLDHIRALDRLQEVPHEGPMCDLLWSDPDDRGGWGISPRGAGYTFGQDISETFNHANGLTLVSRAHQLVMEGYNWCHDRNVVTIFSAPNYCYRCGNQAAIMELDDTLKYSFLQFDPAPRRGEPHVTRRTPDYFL

Structure (SMILES) | SPR binding signal to PP2ACα [1] | selectivity: cell viability in HaCaT cells versus CRC cells [2]
ClC/C=C/C[N+]12CN3CN(CN(C3)C1)C2.[Cl-] [NSC49L] | only had a binding signal at 100 μM | some selectivity towards cancerous cells
COc1ccc(C(=O)N2c3ccccc3Sc3ccc(Cl)cc32)cc1 [iHAP1] | did not show a clear signal even at high concentrations | do not appear to have a significant difference
